The source made the active and inactive calls.
Tests used:
[1] = biological target: T1, Lysosomal acid glucosylceramidase (Homo sapiens, UniProt P04062); assay: Dose response cell-based high throughput screening assay to identify enhancers of beta-glucosidase activity. [Related pubchem assays: 784 ]; type: functional
T1 sequence (P04062 whole entry): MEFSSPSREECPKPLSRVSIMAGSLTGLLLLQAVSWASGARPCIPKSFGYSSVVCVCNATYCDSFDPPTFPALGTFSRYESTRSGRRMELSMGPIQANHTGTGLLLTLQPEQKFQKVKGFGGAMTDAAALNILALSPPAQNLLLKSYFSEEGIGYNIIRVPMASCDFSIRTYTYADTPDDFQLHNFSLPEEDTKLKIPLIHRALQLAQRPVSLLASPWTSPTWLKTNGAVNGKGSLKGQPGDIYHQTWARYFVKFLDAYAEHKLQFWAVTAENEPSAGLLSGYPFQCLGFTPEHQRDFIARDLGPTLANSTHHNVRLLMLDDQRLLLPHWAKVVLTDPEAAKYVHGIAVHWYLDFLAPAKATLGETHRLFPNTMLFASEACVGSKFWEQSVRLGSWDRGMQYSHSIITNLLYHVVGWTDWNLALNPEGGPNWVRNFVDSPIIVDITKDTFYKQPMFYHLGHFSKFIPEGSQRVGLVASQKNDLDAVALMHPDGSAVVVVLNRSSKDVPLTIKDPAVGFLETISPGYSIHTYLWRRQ

[2] = A cytotoxicity screen of small molecule inhibitors of the PhoP region in Salmonella typhi identified in the primary screen. [Related pubchem assays: 1850, 1864, 1985 ]; type: functional
[3] = biological target: T2, Scavenger receptor class B member 1 (Mus musculus, UniProt Q61009); assay: inhibitors of SR-BI mediated HDL lipid uptake, dose response, ldlA[mSR-BI] cells, fluorescence, cherry pick (AID 493194); type: functional, cell-based;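 further: cellular uptake of fluorescent DiI-labeled HDL measured as cell fluorescence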
T2 sequence (Q61009 whole entry): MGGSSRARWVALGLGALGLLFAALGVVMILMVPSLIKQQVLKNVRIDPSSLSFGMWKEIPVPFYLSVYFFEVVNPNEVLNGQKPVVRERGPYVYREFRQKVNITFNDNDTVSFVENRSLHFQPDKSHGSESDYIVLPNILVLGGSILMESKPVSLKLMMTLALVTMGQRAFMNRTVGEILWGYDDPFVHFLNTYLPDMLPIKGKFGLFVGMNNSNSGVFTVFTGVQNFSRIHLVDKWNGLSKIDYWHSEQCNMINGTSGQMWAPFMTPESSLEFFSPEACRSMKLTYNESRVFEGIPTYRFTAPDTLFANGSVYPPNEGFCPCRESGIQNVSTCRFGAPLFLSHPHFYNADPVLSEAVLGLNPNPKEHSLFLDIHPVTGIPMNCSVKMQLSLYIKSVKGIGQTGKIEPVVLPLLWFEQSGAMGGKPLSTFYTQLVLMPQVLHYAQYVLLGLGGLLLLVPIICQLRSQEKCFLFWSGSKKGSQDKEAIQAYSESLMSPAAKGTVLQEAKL

Insulin-degrading enzyme = biological target: T3, Insulin-degrading enzyme (Homo sapiens, UniProt P14735); assay: Dose Response: Fluorescence polarization-based cell-based high throughput dose response assay for inhibitors of insulin-degrading enzyme (IDE). [Related pubchem assays: 434962 (Primary screen (IDE inhibitors in singlicate)), 449730 (Counterscreen (Cytotoxicity in triplicate)), 435028 (Confirmation (IDE inhibitors in triplicate)), 434984 (Summary …; type: functional
T3 sequence (P14735 whole entry): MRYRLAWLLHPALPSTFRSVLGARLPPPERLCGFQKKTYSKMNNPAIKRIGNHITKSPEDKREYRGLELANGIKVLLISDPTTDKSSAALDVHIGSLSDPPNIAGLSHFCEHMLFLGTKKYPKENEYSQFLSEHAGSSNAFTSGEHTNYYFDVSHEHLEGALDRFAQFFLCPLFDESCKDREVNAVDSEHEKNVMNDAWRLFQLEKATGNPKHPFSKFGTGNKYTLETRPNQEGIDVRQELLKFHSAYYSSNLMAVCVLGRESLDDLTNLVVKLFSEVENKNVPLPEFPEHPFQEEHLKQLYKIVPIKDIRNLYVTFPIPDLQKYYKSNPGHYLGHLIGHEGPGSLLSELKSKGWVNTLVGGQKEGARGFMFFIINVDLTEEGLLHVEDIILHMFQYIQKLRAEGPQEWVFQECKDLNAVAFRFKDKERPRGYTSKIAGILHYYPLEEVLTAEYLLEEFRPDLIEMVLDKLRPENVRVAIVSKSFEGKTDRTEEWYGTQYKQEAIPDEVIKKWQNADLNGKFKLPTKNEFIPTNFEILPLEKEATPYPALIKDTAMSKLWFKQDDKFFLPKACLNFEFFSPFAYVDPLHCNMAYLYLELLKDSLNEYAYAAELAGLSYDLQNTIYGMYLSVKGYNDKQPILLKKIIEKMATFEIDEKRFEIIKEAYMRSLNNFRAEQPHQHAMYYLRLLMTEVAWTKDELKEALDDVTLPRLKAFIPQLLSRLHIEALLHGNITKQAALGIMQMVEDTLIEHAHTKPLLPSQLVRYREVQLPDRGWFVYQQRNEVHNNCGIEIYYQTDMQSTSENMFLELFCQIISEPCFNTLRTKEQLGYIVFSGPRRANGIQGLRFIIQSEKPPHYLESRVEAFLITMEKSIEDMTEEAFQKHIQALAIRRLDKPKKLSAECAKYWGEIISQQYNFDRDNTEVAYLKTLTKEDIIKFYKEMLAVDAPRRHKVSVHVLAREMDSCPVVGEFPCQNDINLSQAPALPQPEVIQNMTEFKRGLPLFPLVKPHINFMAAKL

[4] = Counterscreen for IDE inhibitors: Luminescence-based cell-based high throughput dose response assay to identify compounds that are cytotoxic to HEK cells. [Related pubchem assays: 434962 (Primary screen (IDE inhibitors in singlicate)), 449730 (Counterscreen (Cytotoxicity in triplicate)), 435028 (Confirmation (IDE inhibitors in triplicate)) …; type: functional; conditions: HEK293
HEK293 [5] = assay: cells; type: functional, cell-based; conditions: Homo sapiens
HEK293 [6] = assay: cells; conditions: Homo sapiens
HEK293 [7] = assay: NOD1 signaling inhibitors, primary screen, cell-based, luminescence, uHTS (AID 1578); type: functional; conditions: Homo sapiens
[8] = biological target: Nucleotide-binding oligomerization domain-containing protein 2 (Homo sapiens, UniProt Q9HC29); assay: PubChem AID 2334; type: functional
[9] = biological target: T4, Nucleotide-binding oligomerization domain-containing protein 1 (Homo sapiens, UniProt Q9Y239); assay: NOD1 signaling inhibitors, SAR follow-up, revised (AID 2333); type: functional
T4 sequence (Q9Y239 whole entry): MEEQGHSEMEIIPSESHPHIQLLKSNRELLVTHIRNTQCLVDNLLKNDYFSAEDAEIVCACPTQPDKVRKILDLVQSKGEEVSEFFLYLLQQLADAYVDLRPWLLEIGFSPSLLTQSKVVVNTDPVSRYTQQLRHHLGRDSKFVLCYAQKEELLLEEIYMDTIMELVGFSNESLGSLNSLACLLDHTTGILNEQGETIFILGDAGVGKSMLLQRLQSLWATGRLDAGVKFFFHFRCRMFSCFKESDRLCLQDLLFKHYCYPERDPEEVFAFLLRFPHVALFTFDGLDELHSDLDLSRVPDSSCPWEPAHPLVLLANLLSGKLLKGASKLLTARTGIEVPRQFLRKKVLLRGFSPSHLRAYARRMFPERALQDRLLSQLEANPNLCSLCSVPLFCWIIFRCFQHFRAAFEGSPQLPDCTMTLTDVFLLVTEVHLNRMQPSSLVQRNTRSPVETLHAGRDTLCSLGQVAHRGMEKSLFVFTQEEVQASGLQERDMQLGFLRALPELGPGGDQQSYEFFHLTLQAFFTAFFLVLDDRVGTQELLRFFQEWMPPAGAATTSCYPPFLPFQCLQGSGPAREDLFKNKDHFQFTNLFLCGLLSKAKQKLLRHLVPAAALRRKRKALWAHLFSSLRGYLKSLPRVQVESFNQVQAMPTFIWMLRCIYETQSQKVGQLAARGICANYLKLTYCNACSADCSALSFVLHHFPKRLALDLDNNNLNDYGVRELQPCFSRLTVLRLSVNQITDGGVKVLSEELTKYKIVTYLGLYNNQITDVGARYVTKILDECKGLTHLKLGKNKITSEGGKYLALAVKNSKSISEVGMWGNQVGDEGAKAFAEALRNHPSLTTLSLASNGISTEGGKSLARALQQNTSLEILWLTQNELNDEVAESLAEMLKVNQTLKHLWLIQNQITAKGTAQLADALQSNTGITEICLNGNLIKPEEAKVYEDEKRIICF

HEK293 [10] = assay: NOD2 signaling inhibitors in MDP-stimulated cells, cell-based, uHTS, luminescence (AID 2001); type: functional; conditions: Homo sapiens
Tumor necrosis factor = Tumor necrosis factor (Homo sapiens, UniProt P01375); assay: TNFa-triggered NF-kB activation inhibitors, SAR follow-up, cell-based, revised (AID 2337); type: functional
HEK293 [11] = assay: cells; type: functional, cell-based; conditions: Homo sapiens; remark: listed apart in the source
Mucolipin-3 = biological target: T5, Mucolipin-3 (Homo sapiens, UniProt Q8TDD5); assay: Dose response cell-based high-throughput screening assay for agonists of the transient receptor potential channel ML3 (TRPML3). [Related pubchem assays: 1526, 1424, 1448 ]; type: functional
T5 sequence (Q8TDD5 whole entry): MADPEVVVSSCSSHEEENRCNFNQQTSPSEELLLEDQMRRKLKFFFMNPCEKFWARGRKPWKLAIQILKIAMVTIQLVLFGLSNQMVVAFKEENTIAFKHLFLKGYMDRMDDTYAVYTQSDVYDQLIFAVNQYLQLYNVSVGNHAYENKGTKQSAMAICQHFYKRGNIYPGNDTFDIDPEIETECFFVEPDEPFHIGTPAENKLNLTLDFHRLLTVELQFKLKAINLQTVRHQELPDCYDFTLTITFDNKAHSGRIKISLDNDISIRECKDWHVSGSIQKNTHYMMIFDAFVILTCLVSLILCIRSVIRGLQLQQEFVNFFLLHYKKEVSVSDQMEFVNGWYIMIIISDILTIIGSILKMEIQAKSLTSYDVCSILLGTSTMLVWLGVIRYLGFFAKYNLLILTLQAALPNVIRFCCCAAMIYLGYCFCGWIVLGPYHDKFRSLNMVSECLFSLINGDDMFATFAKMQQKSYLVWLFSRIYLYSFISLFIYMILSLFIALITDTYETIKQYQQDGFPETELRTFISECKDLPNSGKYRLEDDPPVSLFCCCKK

Ion channel NompC = Ion channel NompC (Danio rerio, UniProt Q7T1G6); assay: Fluorescence counterscreen assay for TRPML3 agonists: dose response cell-based high-throughput screening assay to identify agonists of the transient receptor potential channel N1 (TRPN1). [Related pubchem assays: 1526, 1424, 1448 ]; type: functional
[12] = biological target: Dual specificity protein phosphatase 3 (Homo sapiens, UniProt P51452); assay: VHR1 inhibitor Ki determination, SAR follow-up, biochemical, colorimetric (AID 2004)
INS1 = assay: beta cell apoptosis inhibitors, cytokine rescue, dose response, luminescence, retest (AID 449756); type: functional, cell-based; conditions: Rattus norvegicus;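 further: cell death triggered by IL-1 beta plus TNF-alpha plus IFN-gamma mixture; protective hits raise ATP signal compared with cytokine alone wells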
[13] = biological target: Induced myeloid leukemia cell differentiation protein Mcl-1 (Homo sapiens, UniProt Q07820); type: functional
Large T antigen = Large T antigen (Simian virus 40, UniProt P03070); type: functional, Betapolyomavirus macacae;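 further: Confirmatory-stage PubChem screen for compounds that inhibit SV40 T antigen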
[14] = biological target: Eukaryotic translation initiation factor 4E (Mus musculus, UniProt P63073); assay: eIF4E–eIF4G protein interaction inhibitors, dose response, biochemical, TR-FRET (AID 855); type: functional;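 further: potency for disrupting eIF4E binding to eIF4GI seen as loss of FRET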
Chain of Eukaryotic translation initiation factor 4E (P63073 whole entry): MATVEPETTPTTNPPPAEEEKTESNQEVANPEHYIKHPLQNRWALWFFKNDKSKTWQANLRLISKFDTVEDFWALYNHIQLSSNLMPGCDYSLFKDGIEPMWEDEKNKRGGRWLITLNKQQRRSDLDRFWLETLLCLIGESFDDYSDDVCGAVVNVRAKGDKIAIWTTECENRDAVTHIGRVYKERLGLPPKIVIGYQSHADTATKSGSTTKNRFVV

Chain of Nucleotide-binding oligomerization domain-containing protein 2 (Q9HC29 whole entry, the tested form may be a part): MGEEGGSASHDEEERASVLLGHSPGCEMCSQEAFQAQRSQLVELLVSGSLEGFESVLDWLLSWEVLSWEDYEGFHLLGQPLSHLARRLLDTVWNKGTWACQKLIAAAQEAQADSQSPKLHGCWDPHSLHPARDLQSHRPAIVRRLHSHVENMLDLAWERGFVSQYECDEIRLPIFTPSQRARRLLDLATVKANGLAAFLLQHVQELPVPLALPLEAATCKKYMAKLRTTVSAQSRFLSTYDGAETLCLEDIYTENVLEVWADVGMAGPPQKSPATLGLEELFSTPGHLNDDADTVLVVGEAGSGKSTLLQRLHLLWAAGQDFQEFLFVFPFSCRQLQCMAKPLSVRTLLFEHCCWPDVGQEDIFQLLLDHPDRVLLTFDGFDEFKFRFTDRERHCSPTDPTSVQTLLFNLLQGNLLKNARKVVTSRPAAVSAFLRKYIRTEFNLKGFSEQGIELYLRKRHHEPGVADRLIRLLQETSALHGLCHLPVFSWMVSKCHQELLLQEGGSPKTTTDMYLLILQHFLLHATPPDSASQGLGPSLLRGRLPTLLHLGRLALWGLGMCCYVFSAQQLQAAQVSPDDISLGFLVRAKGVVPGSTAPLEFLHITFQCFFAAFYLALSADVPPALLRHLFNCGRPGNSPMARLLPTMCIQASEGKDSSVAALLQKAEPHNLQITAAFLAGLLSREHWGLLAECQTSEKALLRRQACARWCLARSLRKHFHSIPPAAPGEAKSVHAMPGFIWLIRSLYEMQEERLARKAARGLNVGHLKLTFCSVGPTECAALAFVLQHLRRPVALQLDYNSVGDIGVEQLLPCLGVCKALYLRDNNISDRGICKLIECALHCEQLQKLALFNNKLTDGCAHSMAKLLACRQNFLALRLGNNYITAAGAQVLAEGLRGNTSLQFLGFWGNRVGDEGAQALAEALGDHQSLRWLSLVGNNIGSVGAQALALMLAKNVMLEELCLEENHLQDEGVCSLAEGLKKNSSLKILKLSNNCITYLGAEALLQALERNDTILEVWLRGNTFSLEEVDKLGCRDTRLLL
Chain of Ion channel NompC (Q7T1G6 whole entry): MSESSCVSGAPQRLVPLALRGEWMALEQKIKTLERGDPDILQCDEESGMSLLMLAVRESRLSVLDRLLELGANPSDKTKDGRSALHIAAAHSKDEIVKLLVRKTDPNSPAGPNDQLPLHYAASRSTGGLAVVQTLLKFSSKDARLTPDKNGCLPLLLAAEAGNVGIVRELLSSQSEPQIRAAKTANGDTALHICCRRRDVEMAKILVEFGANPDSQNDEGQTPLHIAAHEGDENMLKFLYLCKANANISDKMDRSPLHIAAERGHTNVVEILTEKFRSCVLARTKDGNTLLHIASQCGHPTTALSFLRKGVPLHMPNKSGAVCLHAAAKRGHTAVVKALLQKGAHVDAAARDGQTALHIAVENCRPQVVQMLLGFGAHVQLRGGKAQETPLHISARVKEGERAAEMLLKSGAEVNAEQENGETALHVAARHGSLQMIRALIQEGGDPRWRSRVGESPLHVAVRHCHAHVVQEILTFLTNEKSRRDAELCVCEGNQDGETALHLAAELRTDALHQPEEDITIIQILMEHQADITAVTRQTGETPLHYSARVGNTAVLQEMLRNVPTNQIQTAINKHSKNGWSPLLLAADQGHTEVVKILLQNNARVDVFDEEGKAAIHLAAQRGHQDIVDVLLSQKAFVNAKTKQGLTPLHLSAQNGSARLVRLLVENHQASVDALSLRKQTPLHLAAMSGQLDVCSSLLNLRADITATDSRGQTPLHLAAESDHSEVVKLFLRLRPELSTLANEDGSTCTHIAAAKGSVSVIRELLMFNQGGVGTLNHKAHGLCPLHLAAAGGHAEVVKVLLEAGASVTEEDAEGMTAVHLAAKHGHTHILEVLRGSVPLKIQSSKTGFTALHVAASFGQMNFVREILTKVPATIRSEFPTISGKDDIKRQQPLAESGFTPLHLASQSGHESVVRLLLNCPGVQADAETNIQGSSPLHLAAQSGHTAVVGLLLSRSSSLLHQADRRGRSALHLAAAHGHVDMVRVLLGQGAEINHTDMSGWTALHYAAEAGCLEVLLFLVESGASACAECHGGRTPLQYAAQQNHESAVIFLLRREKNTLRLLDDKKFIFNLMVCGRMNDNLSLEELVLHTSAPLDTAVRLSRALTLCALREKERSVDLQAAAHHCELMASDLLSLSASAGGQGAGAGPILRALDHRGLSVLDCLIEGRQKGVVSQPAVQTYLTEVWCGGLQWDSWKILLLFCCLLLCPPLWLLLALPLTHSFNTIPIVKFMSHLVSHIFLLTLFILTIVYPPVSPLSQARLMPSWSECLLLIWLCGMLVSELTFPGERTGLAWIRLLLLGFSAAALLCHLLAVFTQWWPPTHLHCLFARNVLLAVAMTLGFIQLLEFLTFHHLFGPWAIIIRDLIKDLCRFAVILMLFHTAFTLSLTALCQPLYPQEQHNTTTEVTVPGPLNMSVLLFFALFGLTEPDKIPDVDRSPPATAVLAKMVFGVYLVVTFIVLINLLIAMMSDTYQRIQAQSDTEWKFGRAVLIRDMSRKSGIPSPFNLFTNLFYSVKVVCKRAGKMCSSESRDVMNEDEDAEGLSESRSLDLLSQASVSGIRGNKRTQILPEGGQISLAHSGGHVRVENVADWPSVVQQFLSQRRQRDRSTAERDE
Chain of Dual specificity protein phosphatase 3 (P51452 whole entry): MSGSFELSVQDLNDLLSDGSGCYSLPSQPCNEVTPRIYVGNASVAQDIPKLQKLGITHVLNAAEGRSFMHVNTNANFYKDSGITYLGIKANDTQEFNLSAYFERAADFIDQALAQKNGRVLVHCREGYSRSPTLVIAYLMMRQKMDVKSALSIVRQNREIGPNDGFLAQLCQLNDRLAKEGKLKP
Chain of Tumor necrosis factor (P01375 whole entry): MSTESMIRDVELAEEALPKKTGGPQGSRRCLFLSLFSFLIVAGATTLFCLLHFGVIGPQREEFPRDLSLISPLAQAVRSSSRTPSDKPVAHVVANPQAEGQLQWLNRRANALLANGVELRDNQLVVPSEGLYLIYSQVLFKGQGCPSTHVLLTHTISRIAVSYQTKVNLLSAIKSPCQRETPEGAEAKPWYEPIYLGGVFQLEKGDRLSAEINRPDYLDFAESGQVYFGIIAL
Chain of Induced myeloid leukemia cell differentiation protein Mcl-1 (Q07820 whole entry): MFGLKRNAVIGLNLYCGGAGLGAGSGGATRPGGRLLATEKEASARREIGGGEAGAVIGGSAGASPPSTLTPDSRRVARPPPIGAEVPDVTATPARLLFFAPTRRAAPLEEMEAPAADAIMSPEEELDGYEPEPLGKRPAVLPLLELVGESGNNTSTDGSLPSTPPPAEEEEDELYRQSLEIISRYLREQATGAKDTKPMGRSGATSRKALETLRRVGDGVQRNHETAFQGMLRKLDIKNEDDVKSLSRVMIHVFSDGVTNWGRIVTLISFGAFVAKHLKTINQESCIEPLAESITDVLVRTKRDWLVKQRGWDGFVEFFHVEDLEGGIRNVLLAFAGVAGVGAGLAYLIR
Chain of Large T antigen (P03070 whole entry): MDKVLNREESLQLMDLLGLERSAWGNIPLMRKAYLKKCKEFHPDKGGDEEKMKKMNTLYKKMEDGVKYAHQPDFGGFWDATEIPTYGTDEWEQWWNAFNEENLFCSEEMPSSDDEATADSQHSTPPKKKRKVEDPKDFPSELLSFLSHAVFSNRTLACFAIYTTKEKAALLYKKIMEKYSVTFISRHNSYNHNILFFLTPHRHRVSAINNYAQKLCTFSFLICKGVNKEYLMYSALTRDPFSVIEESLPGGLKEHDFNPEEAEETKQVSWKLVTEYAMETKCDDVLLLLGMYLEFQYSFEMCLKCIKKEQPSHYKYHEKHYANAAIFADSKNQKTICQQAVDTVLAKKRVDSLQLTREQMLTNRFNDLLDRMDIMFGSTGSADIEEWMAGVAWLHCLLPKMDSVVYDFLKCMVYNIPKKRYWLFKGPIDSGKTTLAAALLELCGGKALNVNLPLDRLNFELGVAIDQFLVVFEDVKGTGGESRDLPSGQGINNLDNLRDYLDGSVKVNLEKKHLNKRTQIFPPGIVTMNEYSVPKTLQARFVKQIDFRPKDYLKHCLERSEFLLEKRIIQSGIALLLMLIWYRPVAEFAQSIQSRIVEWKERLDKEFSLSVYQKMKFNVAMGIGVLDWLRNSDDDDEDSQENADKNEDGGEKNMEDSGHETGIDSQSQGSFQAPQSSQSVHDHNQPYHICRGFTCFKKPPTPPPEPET

CCN1CCN(C(c2ccc(OC)c(OC)c2)c2nnnn2C(C)(C)C)CC1 (configuration not stated)
EC50 [1]: > 50 µM (not active)

Oc1c(Br)cc(Br)cc1CNc1ccccn1
EC50 [2]: > 50 µM (active)

CCc1cc2cc3c(cc2nc1SCC(=O)OC(C)C)OCO3
AC50 [3]: 0.366 µM (active)

COc1ccc2[nH]c3c(NCc4ccco4)ncnc3c2c1
IC50 (Insulin-degrading enzyme): 21.2 µM (not active)
IC50 [4]: 19.3 µM (not active)

O=C1CC(Cc2ccccc2)C(=O)N1c1ccc(Cl)cn1 (configuration not stated)
EC50 [1]: > 10 µM (not active)

CCCCn1c(SCC(=O)Nc2nnc(C(C)C)s2)nc2c1c(=O)n(C)c(=O)n2C
IC50 (HEK293 [5]): > 20 µM (inactive)
IC50 (HEK293 [6]): > 20 µM (inactive)
EC50 (HEK293 [7]): 7.02 µM (active)
IC50 [8]: 6.89 µM (active)
IC50 [9]: 5.79 µM (active)
IC50 (HEK293 [10]): 9.58 µM (active)
IC50 (Tumor necrosis factor): 5.82 µM (active)
IC50 (HEK293 [11]): > 20 µM (inactive)

CCCOc1ccc(S(=O)(=O)n2cc(F)c(=O)[nH]c2=O)cc1
EC50 [2]: > 50 µM (active)

O=S(=O)(c1ccc2ccccc2c1)N1CCCCCC1
EC50 (Mucolipin-3): 1.71 µM (active)
EC50 (Ion channel NompC): > 29.9 µM (not active)

COc1ccc(C(=O)C2CCN(CC(=O)Nc3cc(C)cc(C)c3)CC2)cc1
EC50 [2]: > 50 µM (active)

COc1cc2c(C(=O)NCCCN3CCN(c4cccc(Cl)c4)CC3)cn(C)c(=O)c2cc1OC
EC50 [1]: > 50 µM (not active)

CCN1C(=O)/C(=C/c2ccoc2)C(=O)NC1=S
Ki [12]: 56.7 µM (inactive)

CCOc1ccccc1Nc1nc(-c2sc(NC(=O)c3cccc(Cl)c3)nc2C)cs1
AC50 [3]: 5.75 µM (active)

COc1ccc(OC)c(CCNC(=O)c2ccc3c(c2)N(Cc2ccc(F)cc2)CCS3)c1
AC50 [3]: 1.7 µM (active)

CC1=CC(C)(C)N(C(=O)CSc2nnc(-c3ccc(C)cc3)o2)c2ccc(C)cc21
AC50 (INS1): 14.8 µM (active)
EC50 (Mucolipin-3): 7.81 µM (active)
EC50 (Ion channel NompC): > 29.9 µM (not active)

CCOc1cc(/C=C2/N=C(c3ccc(NC(C)=O)cc3)OC2=O)ccc1OCc1ccccc1
Ki [12]: 22.9 µM (inactive)

COc1ccc(C(=O)c2sc3nc(-c4ccccc4)ccc3c2N)cc1
IC50 (Insulin-degrading enzyme): > 55.9 µM (not active)
IC50 [4]: 25.4 µM (not active)

Nc1nc2ccccc2n1Cc1ccccc1Cl
IC50 (HEK293 [6]): > 20 µM (inactive)
IC50 [8]: 15.3 µM (active)
IC50 [9]: 12.9 µM (active)
IC50 (Tumor necrosis factor): 12.5 µM (active)

O=c1/c(=C\c2cc([N+](=O)[O-])cc([N+](=O)[O-])c2O)sc2nc3ccccc3n12
IC50 (Insulin-degrading enzyme): > 55.9 µM (not active)
IC50 [13]: 1.54 µM (active)
IC50 (Large T antigen): 52.8 µM (active)
IC50 [14]: 50 µM (inactive)
IC50 [4]: > 55.7 µM (not active)

Source: ChEMBL document CHEMBL1201862, “PubChem BioAssay data set” (2004)
